These results are taken from paper PMC2866738 (Biochemistry, 2010).

The test deals with IN double-mutant G140S-Q148H (SH). The test is classed as biochemical.

For `Cc1nnc(C(=O)NC(C)(C)c2nc(C(=O)NCc3ccc(F)cc3)c(O)c(=O)n2C)o1` [RAL, Raltegravir], the “increase in IC50 for 3′-P compared to WT (resistance factor)” value is recorded as “more than 62 fold”.
